The numbers were not newly measured in US20050032876A1, “Pharmaceutical compositions comprising sumatriptan and metoclopramide, and methods of use thereof” (priority 2003, published 2005), which cites them from elsewhere.

Each structure is given as a SMILES string.

The conditions of this data set: rapidly pre-systemically metabolized; very short half-life of the order of only about 2 hours.

Regarding `CNS(=O)(=O)Cc1ccc2[nH]cc(CCN(C)C)c2c1` [Sumatriptan], the half-life entry is on record as “about 2 hours”.
